Results taken from ChEMBL document CHEMBL3046491, “cis-Configuration: a new tactic/rationale for neonicotinoid molecular design” (2011).

Tests used:
Assay type in all cases: functional
Aphis craccivora [1] = assay: Insecticidal activity against Aphis craccivora (cowpea aphid) assessed as mortality at 500 mg/L
Nilaparvata lugens [2] = assay: Insecticidal activity against imidacloprid-resistant Nilaparvata lugens (brown planthopper) assessed as drug concentration required to induce mortality per pest
Nilaparvata lugens [3] = assay: Ratio of imidacloprid LC50 to compound LC50 for imidacloprid-resistant Nilaparvata lugens (brown planthopper)
Nilaparvata lugens [4] = assay: Insecticidal activity against imidacloprid-sensitive Nilaparvata lugens (brown planthopper) assessed as drug concentration required to induce mortality per pest
Aphis craccivora [5] = assay: Insecticidal activity against Aphis craccivora (cowpea aphid) assessed as mortality

| SMILES | mortality at 500 µg/mL (Aphis craccivora [1]) [%] | also measured |
| --- | --- | --- |
| CN1CC([N+](=O)[O-])=C2N(Cc3ccc(Cl)nc3)C[C@H]3CCC[C@H]3N2C1 | 30 | – |
| CCN1CC([N+](=O)[O-])=C2N(Cc3ccc(Cl)nc3)C[C@H]3CCC[C@H]3N2C1 (relative stereo) | 30 | – |
| Cl.O=[N+]([O-])/C(=C\c1ccco1)C1=NCCN1Cc1ccc(Cl)nc1 | – | LC50 (Nilaparvata lugens [2]): 0.7312 ng; RatioLC50 (Nilaparvata lugens [3]): 30 |
| O=[N+]([O-])C1=C2N(Cc3ccc(Cl)nc3)CCN2[C@H](c2ccco2)[C@@](C2=NCCN2Cc2ccc(Cl)nc2)([N+](=O)[O-])[C@@H]1c1ccco1 | – | RatioLC50 (Nilaparvata lugens [3]): 10 |
| O=[N+]([O-])C1=C2N(Cc3ccc(Cl)nc3)CCN2[C@@H]2CC[C@H]1O2 | – | LC50 (Nilaparvata lugens [4]): 0.0742 ng; LC50 (Nilaparvata lugens [2]): 0.4925 ng; RatioLC50 (Nilaparvata lugens [3]): 50 |
| O=[N+]([O-])C1=C2N(Cc3ccc(Cl)nc3)CCN2[C@H]2CCC[C@@H]1O2 | 87 | LC50 (Nilaparvata lugens [4]): 4.144 ng; LC50 (Nilaparvata lugens [2]): 18.9795 ng |
| CC(C)N1CC([N+](=O)[O-])=C2N(Cc3ccc(Cl)nc3)C[C@H]3CCC[C@H]3N2C1 (relative stereo) | 30 | – |
| CCCN1CC([N+](=O)[O-])=C2N(CC3COCO3)CCN2C1 (centres undefined) | 0 | – |
| CCN1CC([N+](=O)[O-])=C2N(CC3COCO3)CCN2C1 (centres undefined) | 0 | – |
| O=[N+]([O-])C1=C2N(Cc3ccc(Cl)nc3)CCN2[C@H](c2ccco2)[C@@](C2=NCCN2Cc2ccc(Cl)nc2)([N+](=O)[O-])[C@H]1c1ccco1 | 87 | – |
| CN1CC([N+](=O)[O-])=C2N(CC3COCO3)CCN2C1 (centres undefined) | 0 | – |
| CCCCN1CC([N+](=O)[O-])=C2N(CC3COCO3)CCN2C1 (centres undefined) | 0 | – |
| CCCCN1CC([N+](=O)[O-])=C2N(Cc3ccc(Cl)nc3)C[C@H]3CCC[C@H]3N2C1 (relative stereo) | 30 | – |
| O=[N+]([O-])C1=C2N(Cc3ccc(Cl)nc3)C[C@H]3CCC[C@H]3N2CN(CCO)C1 (relative stereo) | 30 | – |
| CCCN1CC([N+](=O)[O-])=C2N(Cc3ccc(Cl)nc3)C[C@H]3CCC[C@H]3N2C1 (relative stereo) | 30 | – |
| O=[N+]([O-])C1=C2N(CC3COCO3)CCN2CN(CCO)C1 (centres undefined) | 0 | – |
| O=[N+]([O-])/N=C1\NCCN1Cc1ccc(Cl)nc1 [IMIDACLOPRID] | – | LC50 (Aphis craccivora [5]): 31 µM; LC50 (Nilaparvata lugens [2]): 22.1614 ng |
| CC(C)N1CC([N+](=O)[O-])=C2N(CC3COCO3)CCN2C1 (centres undefined) | 0 | – |
